Experiments:
TNF-α = experiment: Inflammatory markers, RT-PCR expression study in TNF-α induced FLS; format: cell-based; conditions: sample 10 μg/mL; FLS induced with 10 ng/ml rat TNF-α, 6 hrs; Control = 1, Induced 7.93
Method: (§1) FLS cells (8×10^4 cells/well) were seeded in 24-well plates and incubated overnight at 37° C. under 5% CO2. […] RT-PCR expression study: After 6 hrs of incubation, total cellular RNA from untreated and treated cells were isolated using Trizol Reagent® (Ambion, Life Technologies), according to the manufacturer's instructions, followed by RNase-free DNase I treatment (ThermoFisher Scientific) to remove any genomic DNA. Messenger RNA quality and concentration were analyzed spectrophotometrically (NanoDrop Lite, ThermoFisher Scientific). One microgram of total RNA was reverse transcribed into cDNA using Revert-aid First Strand cDNA synthesis kit (ThermoFisher Scientific), according to the manufacturer's instructions, and stored at −80° C. until use. Then 20 μl of the reaction mixture was subjected to PCR using SYBR green qPCR master mix for amplification of cDNAs using specifically designed primers procured from Eurofins India, as an internal control, the house keeping gene § actin was co-amplified with each reaction (Table 2). PCR was carried out in Light cycler 96 (Roche Life Science) and PCR conditions for genes were initial denaturation at 95° C. for 10 min followed by 35 cycles consisting of denaturation at 95° C. for 30 seconds, annealing of primers at 60° C. for 30 seconds, extension at 72° C. for 30 seconds and final cooling at 72° C. for 30 seconds (Table 1).

MMP-3 = experiment: as above; format: cell-based; conditions: sample 10 μg/mL; FLS induced with 10 ng/ml rat TNF-α, 6 hrs; Control = 1, Induced 5.14
Method: as §1

CCL-5 = experiment: as above; format: cell-based; conditions: sample 10 μg/mL; FLS induced with 10 ng/ml rat TNF-α, 6 hrs; Control = 1, Induced 7.16
Method: as §1

IFN-γ = experiment: as above; format: cell-based; conditions: sample 10 μg/mL; FLS induced with 10 ng/ml rat TNF-α, 6 hrs; Control = 1, Induced 5.7
Method: as §1

Cathepsin = experiment: as above; format: cell-based; conditions: sample 10 μg/mL; FLS induced with 10 ng/ml rat TNF-α, 6 hrs; Control = 1, Induced 3.86
Method: as §1

[1] = tested on: Fibroblast-like synoviocytes (FLS); experiment: WST-1 proliferation assay; format: cell-based, rat; conditions: 20 μg/mL, 72 hours; FIG. 5
Method: FLS were isolated from synovial tissues by enzymatic digestion. In short, the tissues were separated into 1-mm^3 blocks with microsurgery scissors. After which the tissues were incubated with 0.1% collagenase type II enzyme in DMEM supplemented with 10% FBS for enzymatic digestion at 37° C. for 45 min in an orbital shaker incubator (200 rpm).
After the incubation time, the tubes were vortexed vigorously for 1-2 min to release the cells and filtered using a 100 μm mesh strainer. The filtrate was centrifuged for 5 min at 1200 rpm, the cells were resuspended in DMEM supplemented with 10% FBS and 100 μg/ml streptomycin and 100 U/ml penicillin and cultured in a humidified incubator at 37° C. under 5% CO2.
WST-1 assay was used to measure the effect of different samples on FLS proliferation. FLS were seeded in 96-well plates at a density of 5×10^3 cells/well and incubated overnight at 37° C. under 5% CO2. After the treatment period, 100 μl WST-1 reagent (5015944001, Sigma, USA) diluted 1:10 in serum-free DMEM culture media was added to each well, and incubated at 37° C. under 5% CO2 for 2 h. The absorbance was measured at 450 nm with a reference wavelength of 610 nm.

Bax/Bcl-2 = experiment: Apoptosis analysis, Bax/Bcl-2 RT-PCR expression in FLS; format: cell-based, rat; conditions: 24 h treatment; compared to the control; FIG. 19
Method: FLS apoptosis was assessed with RT-PCR expression study. In short, FLS cells (8×10^4 cells/well) were seeded in 24-well plates and incubated overnight at 37° C. under 5% CO2. After synchronization in serum-free medium for 24 h, cells were treated with or without the presence of samples in DMEM 10% FBS for 24 h. After the treatment period, the cells were collected, total cellular RNA was isolated and processed for RT-PCR analysis (Table 3) as mentioned before.

[2] = tested on: Th17 and Treg cells in spleen; experiment: Treg and Th17 analysis in spleen (flow cytometry); format: in vivo, rat; conditions: spleen of CIA rats; celecoxib control; RA control at 3.5; FIG. 35
Method: Spleen was obtained from collagen induced arthritis rats under sterile conditions for the lymphocyte isolation. The spleen was washed twice with PBS containing 100 μg/ml streptomycin and 100 U/ml penicillin and cut into small pieces with microsurgery scissors, homogenized with plunger end of the syringe and filtered using a 100 μm mesh strainer. The filtrate was centrifuged for 5 min at 1200 rpm, washed 1-2 times with PBS, after which 1×10^6 cells/ml were suspended in RPMI media supplemented with 10% FBS. The imbalance is effected by reducing Th17 cells and increasing T-cell (Treg) (FIGS. 33-35) with the ratio of Th17/Treg preferably as 1, or more preferably between 0-1 compared to RA control at 3.5 (FIG. 35).
After the stimulation, cells were collected and 2×10^5 cells were aliquoted into different tubes for evaluating Th17 and Treg population. The antibody dilutions used for the analysis were as recommended by the respective manufacturer. To evaluate Th17 population, cells were initially stained with FITC Mouse Anti-Rat CD3 (559975, BD pharmingen) and APC Mouse Anti-Rat CD4 (550057, BD pharmingen) antibodies. […] FCM was performed on a BD FACSCelesta system (BD Biosciences, Franklin Lakes, N.J., USA) and analyzed using FlowJo software.

[3] = tested on: collagen-induced arthritis (CIA); experiment: Collagen-induced arthritis study, arthritic score; format: in vivo, rat; conditions: positive control, 10 mg/kg; RA control is 3.5; scale 0-4; FIG. 32
From the text: The […] (Table 4) collagen-induced arthritis (CIA) is a widely studied autoimmune model of rheumatoid arthritis. In this model, autoimmune arthritis is induced by immunization with type II collagen (CII) emulsified in complete Freund's adjuvant. These animals develop an autoimmune-mediated polyarthritis that shares several clinical, histological, and immunological features with the human autoimmune disease rheumatoid arthritis. The immune response to CII is characterized by both the stimulation of collagen-specific T cells and the production of high titers of antibody specific for both the immunogen (heterologous CII) and the autoantigen (mouse or rat CII).
Arthritis induced by administering type-2 collagen (chicken sternal cartilage, Sigma catalog no: C9301) which will be emulsified with incomplete Freund's adjuvant (FIA) at 1:1 ratio. On Day 0, Rats were intradermally injected with 200 μL (200 μg/animal) of collagen-FIA emulsion at the base of the tail (First Immunization). For booster injection the emulsion was prepared same as above and injected with 100 μL (100 μg/animal) of collagen-FIA emulsion given on day 7. Test sample administered from day 0 to day 20. […]

SMILES	TNF-α (inflammatory marker expression) (TNF-α)	MMP-3 (inflammatory marker expression) (MMP-3)	CCL-5 (inflammatory marker expression) (CCL-5)	IFN-γ (inflammatory marker expression) (IFN-γ)	Cathepsin (inflammatory marker expression) (Cathepsin)	inhibition of FLS proliferation, trend among curcuminoid analogues [1]	Bax/Bcl-2 ratio (pro-apoptosis), ranking (Bax/Bcl-2)	ratio of Th17/Treg [2]	arthritis score [3]
O=C(/C=C/c1ccc(O)cc1)CC(=O)/C=C/c1ccc(O)cc1 [BDMC, bisdemethoxycurcumin]	3.20 ± 2.1	6.07 ± 0.05	4.07 ± 0.05	4.57 ± 0.11	3.36 ± 0.37	–	–	–	–
COc1cc(/C=C/C(=O)CC(=O)/C=C/c2ccc(O)c(OC)c2)ccc1O [Curcumin, curcumin]	3.93 ± 0.84	3.98 ± 0.48	3.01 ± 0.04	2.7 ± 0.19	2.70 ± 0.14	BDMC>curcumin>DMC	BDMC>DMC>curcumin	–	–
COc1cc(/C=C/C(O)=C/C(=O)/C=C/c2ccc(O)cc2)ccc1O [DMC, demethoxycurcumin]	3.57 ± 1.77	4.91 ± 0.41	7.03 ± 3.03	4.43 ± 0.15	3.69 ± 0.14	–	–	–	–
Cc1ccc(-c2cc(C(F)(F)F)nn2-c2ccc(S(N)(=O)=O)cc2)cc1 [celecoxib]	–	–	–	–	–	–	–	0.5	1

— US20220193006A1, “COMPOSITIONS FOR EFFECTIVE MANAGEMENT OF FIBROBLAST-LIKE SYNOVIOCYTES MEDIATED RHEUMATOID ARTHRITIS” (priority 2020, published 2022)
